In paper PMC6271266, “Synthesis and Biological Evaluation of Liguzinediol Mono- and Dual Ester Prodrugs as Promising Inotropic Agents” (Molecules, 2014):
≈ marks a conversion by molar mass, not a printed value.

Legend:
[1] = Capacity factor (k') by HPLC (lipophilic index); format: physicochemical; conditions: n = 3, mean ± SD
Description: According to the method described in the literature, the capacity factor (k') of the prodrugs was determined using high-performance liquid chromatography (HPLC). Retention times of each prodrug and LZDO were measured and k' values were calculated from the following equation: k' = (t' − t0)/t0(1) where t0 is the retention time of the uracil and t' is the retention time of each compound. All experiments were conducted in triplicate.

[2] = Partition coefficient, n-octanol / 50 mM phosphate buffer pH 7.4; format: physicochemical; conditions: 1-octanol/phosphate buffer (7.4) at 25 °C, n = 3, mean ± SD; for logP: n-octanol/50 mM phosphate buffer, pH 7.4
Description: Partitioning studies were performed with n-octanol and 50 mM phosphate buffer solution (pH 7.4) following standard procedures described in the literature. All experiments were conducted in triplicate, and the determination of LZDO was also carried out as a reference. Meanwhile, ChemBioDraw Ultra 12.0 was used to determine the calculated log p values as reference to the observed values.

[3] = Hydrolysis (chemical stability) in phosphate buffer pH 7.4; format: physicochemical; conditions: buffer solution pH 7.4, 37 °C, n = 3, mean ± SD
Description: The chemical stabilities of the target products were analyzed by high-performance liquid chromatography (HPLC) and were calculated as the amount unchanged within 24 h in buffer solutions at pH 7.4.
Methanolic stock solutions of each compound were added to 10 mL of 50 mM phosphate buffer solution (pH 7.4). The resulting solution was placed in a constant shaker bath set at 37 °C and after 24 h, a 10 μL aliquot of reaction solution was taken and analyzed by HPLC [35]. All experiments were performed in triplicate.

[4] = Hydrolysis in 80% human plasma; format: in vitro ADME; conditions: for half-life: human, 80% human plasma, pH 7.4, read-out: t1/2 (80% Human Plasma) (converted); for bioconversion to LZDO or monoester in human plasma: result in words
Description: (§1) For a rationally designed prodrug intended to prolong the half-life of the active moiety, the metabolic lability should be sufficient and continuous. Preliminary metabolic stability was assessed in human plasma and human liver microsomes The profile of disappearance of each prodrug followed a pseudo-first-order trend, and half-lives were calculated from the linear slopes of logarithmic plots of remaining prodrug over time.
A prodrug (100 μL, initial concentrations were 4.20–9.85 mM) in methanol was added to human plasma (1000 μL) diluted to 80% with 50 mM phosphate buffer solution (pH 7.4) and was placed in a constant shaker bath set. The resulting solution was subsequently incubated at 37 °C and at appropriate time intervals methanol (1 mL) containing caffeine as internal standard was added in order to deproteinize the serum. The sample was vortexed for 3 min, and then centrifuged for 5 min at 5000 g. 900 μL of clear supernatant was withdrawn and evaporated to remove the solvent. Before analysis by RP-HPLC, the samples were dissolved in methanol (200 μL), vortexed again for 5 min, and then centrifuged for 5 min at 12,000 g. All experiments were performed at least in triplicate.
(§2) Separation and quantitation of the releasing LZDO and the prodrugs were carried out using a HPLC procedure. The HPLC system was equipped with a Waters 2695 gradient pump, a Waters 2487 UV detector at 278 nm, and an Empower 2 data station. The analytical column for in vitro samples was a Boston Green ODS-AQ column (4.6 mm × 50 mm, 5 μm) and the injection volume was 10 μL. Gradient elution methods were performed with a flow rate at 1.0 mL/min on Boston Green ODS-AQ column maintained at 30 °C. The percentage of mobile phase consisting of methanol and water was varied to elute analytes (see Supplementary Material for details of the HPLC elution). The methods provided rapid analysis for quantifying LZDO, prodrug and internal standard simultaneously. When qualifying the releasing amount of LZDO, separate standard curves under specific analytic condition were prepared by spiking a known amount of LZDO and internal standard in blank matrix. Disappearance of each prodrug from in vitro samples was analyzed by taking the ratio of peak areas detected at sampling time to that at initial time. As for in vivo pharmacokinetic analysis, determinations only referred to LZDO and an Ultimate XB-C18 column (3.0 mm × 50 mm, 3 μm) with an injection volume of 2 μL was used. The flow rate on Ultimate XB-C18 column was 0.4 mL/min with a column temperature of 30 °C. The mobile phase consisted of methanol (A) and water (B). The initial mobile phase composition was 4% A/96% B and maintained for 8 min. After that the mobile phase composition was changed to 80% A/20% B over 4 min and held at that ratio for an additional 4 min. The mobile phase was returned to initial composition over 1 min and re-equilibrated for 3 min. For in vivo analytical samples, a separate standard curve was prepared using blank rat plasma and ranged from 0.39 to 50 μg/mL.

[5] = Metabolism in human liver microsomes; format: in vitro ADME; conditions: for half-life: human, human liver microsomes, pH 7.4, read-out: t1/2 (Human Liver Microsomes) (converted); for bioconversion to LZDO or monoester in human liver microsomes: result in words
Description: as §1
To the human liver microsomes which were dissolved in 50 mM phosphate buffer solution (pH 7.4) to a concentration of 1 mg/mL, a prodrug (100 μL, initial concentrations were 4.20–9.85 mM) in methanol and NADPH (100 μL, 1 mM) also in 50 mM phosphate buffer solution (pH 7.4) were successively added to initiate the incubation. The solution was then incubated at 37 °C and the subsequent procedures of sample preparations were similar to those in Section 3.5. All experiments were performed at least in triplicate.
as §2

[6] = Aqueous solubility in 50 mM phosphate buffer pH 7.4; format: physicochemical; conditions: for solubility at 24 h: thermodynamic from solid
Description: An excess of each prodrug was added to 5 mL of 50 mM phosphate buffer solution (pH 7.4), and shaken at 25 °C in a water bath to establish equilibration for 24 h. After the equilibration, the samples were filtered through a membrane filter (0.45 μm) and analyzed by HPLC. All experiments were conducted in triplicate.

[7] = prodrug disappearance, from pseudo-first-order rate constant
[8] = aqueous buffer, 50 mM phosphate buffer pH 7.4, 25 °C, 24 h, n = 3, mean ± SD

## 3,6-Dimethyl-5-hydroxy-2-octadecanoyloxymethylpyrazine [Compound M18]
[1]
  Capacity Factor: 1.055 ± 0.061
[2]
  Log P: 3.38 ± 0.20
[3]
  % Unchanged at 24 h (pH 7.4): 98.2 ± 0.6%
[4]; maximum percentage of liguzinediol released at 6 h incubation, 37 °C
  % Max of LZDO Released (80% Human Plasma): 15.6 ± 1.6%
[4]; [7]
  t1/2 (80% Human Plasma): 9.6 ± 1.1 h
[5]; maximum percentage of liguzinediol released at 6 h incubation, 37 °C, NADPH
  % Max of LZDO Released (Human Liver Microsomes): 15.9 ± 1.2%
[5]; [7]
  t1/2 (Human Liver Microsomes): 9.5 ± 0.9 h

## Cc1nc(COC(=O)C(C)(C)C)c(C)nc1COC(=O)C(C)(C)C [Compound D5, 3,6-Dimethyl-2,5-dipivaloyloxymethylpyrazine]
[1]
  Capacity Factor: 0.364 ± 0.039
[2]
  logP: 2.5 ± 0.18
[6]; [8]
  solubility at 24 h: 29.9 ± 1.36 µg/mL (≈ 0.0889 mM)
[3]
  % Unchanged at 24 h (pH 7.4): 96.1 ± 0.2%
[4]; [7]
  half-life: 3.4 ± 0.4 h
[5]; [7]
  half-life: 3.2 ± 0.3 h
other
  melting point: 80 to 82 °C

## CCCCCCCCCC(=O)OCc1nc(C)c(COC(=O)CCCCCCCCC)nc1C [Compound D10, 2,5-Didecanoyloxymethyl-3,6-dimethylpyrazine]
[1]
  Capacity Factor: 1.068 ± 0.057
[2]
  logP: 2.87 ± 0.16
[3]
  % Unchanged at 24 h (pH 7.4): 98.7 ± 0.4%
[4]; [7]
  half-life: 4.2 ± 0.4 h
[5]; [7]
  half-life: 4.1 ± 0.5 h
other
  melting point: 46 to 47 °C

## CCCCCCCCCCCC(=O)OCc1nc(C)c(COC(=O)CCCCCCCCCCC)nc1C [Compound D12, 2,5-Didodecanoyloxymethyl-3,6-dimethylpyrazine]
[1]
  Capacity Factor: 1.640 ± 0.032
[2]
  logP: 3.77 ± 0.21
[3]
  % Unchanged at 24 h (pH 7.4): 99.8 ± 0.5%
[4]; [7]
  half-life: 7.9 ± 1 h
[5]; [7]
  half-life: 7.9 ± 0.9 h
other
  melting point: 55 to 56 °C

## CCCCCCCCCCCCCCCC(=O)OCc1nc(C)c(COC(=O)CCCCCCCCCCCCCCC)nc1C [Compound D16, 2,5-Dihexadecanoyloxymethyl-3,6-dimethylpyrazine]
[1]
  Capacity Factor: 3.911 ± 0.042
[2]
  Log P: thoroughly partitioned into n-octanol
[3]
  % Unchanged at 24 h (pH 7.4): stable ^c
[4]
  bioconversion to LZDO or monoester in human plasma: no bioconversion
[5]
  bioconversion to LZDO or monoester in human liver microsomes: no bioconversion
other
  melting point: 74 to 75 °C

## CCCCCCCCCCCCCCCCCC(=O)OCc1nc(C)c(COC(=O)CCCCCCCCCCCCCCCCC)nc1C [Compound D18, 3,6-Dimethyl-2,5-dioctadecanoyloxymethylpyrazine]
[1]
  Capacity Factor: 6.134 ± 0.084
[2]
  Log P: thoroughly partitioned into n-octanol
[3]
  % Unchanged at 24 h (pH 7.4): stable ^c
[4]
  bioconversion to LZDO or monoester in human plasma: no bioconversion
[5]
  bioconversion to LZDO or monoester in human liver microsomes: no bioconversion
other
  melting point: 75 to 76 °C

## Cc1nc(COC(=O)C(C)(C)C)c(C)nc1CO [Compound M5, 3,6-Dimethyl-5-hydroxymethyl-2-pivaloyloxymethylpyrazine]
[1]
  Capacity Factor: 0.210 ± 0.020
[2]
  logP: 1.33 ± 0.1
[6]; 50 mM phosphate buffer pH 7.4, 25 °C, 24 h, n = 3, mean ± SD
  Solubility: 8000 ± 350 µg/mL (≈ 31.7 mM)
[6]; phosphate buffer, 25 °C, pH 7.4, aqueous buffer, as restated in conclusions
  solubility at 24 h: 8000 µg/mL (≈ 31.7 mM)
[3]
  % Unchanged at 24 h (pH 7.4): 98.9 ± 0.3%
[4]; [7]
  half-life: 2.6 ± 0.1 h
[5]; [7]
  half-life: 5.1 ± 0.2 h
other
  melting point: 66 to 67 °C

## CCCCCCCCCC(=O)OCc1nc(C)c(CO)nc1C [Compound M10, 2-Decanoyloxymethyl-3,6-dimethyl-5-hydroxymethylpyrazine]
[1]
  Capacity Factor: 0.400 ± 0.015
[2]
  logP: 2.48 ± 0.04
[6]; [8]
  solubility at 24 h: 8.89 ± 0.21 µg/mL (≈ 0.0276 mM)
[3]
  % Unchanged at 24 h (pH 7.4): 98.9 ± 0.3%
[4]; [7]
  half-life: 2.3 ± 0.2 h
[5]; [7]
  half-life: 2.1 ± 0.6 h
other
  melting point: 31 to 32 °C

## CCCCCCCCCCCC(=O)OCc1nc(C)c(CO)nc1C [Compound M12, 3,6-Dimethyl-2-dodecanoyloxymethyl-5-hydroxymethylpyrazine]
[1]
  Capacity Factor: 0.514 ± 0.012
[2]
  logP: 3.12 ± 0.15
[6]; [8]
  solubility at 24 h: 2.23 ± 0.11 µg/mL (≈ 0.00636 mM)
[3]
  % Unchanged at 24 h (pH 7.4): 99.7 ± 0.2%
[4]; [7]
  half-life: 2.6 ± 0.5 h
[5]; [7]
  half-life: 2.2 ± 0.1 h
other
  melting point: 40 to 41 °C

## CCCCCCCCCCCCCCCC(=O)OCc1nc(C)c(CO)nc1C [Compound M16, 3,6-Dimethyl-2-hexadecanoyloxymethyl-5-hydroxymethylpyrazine]
[1]
  Capacity Factor: 0.834 ± 0.012
[2]
  logP: 3.25 ± 0.13
[3]
  % Unchanged at 24 h (pH 7.4): 99.4 ± 0.4%
[4]; [7]
  half-life: 3.3 ± 0.6 h
[5]; [7]
  half-life: 3.3 ± 0.7 h
other
  melting point: 60 to 62 °C

## Cc1nc(CO)c(C)nc1CO [Liguzinediol, 2,5-Dihydroxymethyl-3,6-dimethylpyrazine]
[1]
  Capacity Factor: 0.100 ± 0.004
[2]
  logP: -1.12 ± 0.11
[6]; [8]
  solubility at 24 h: 224000 µg/mL (≈ 1330 mM)
